Measured values reported in US12319664B2, “Herbicidally active 3-phenylisoxazoline-5-carboxamides of cyclopentenylcarboxylic acid derivatives” (Bayer Aktiengesellschaft, priority 2018, dated 2025).

Tests used:
STEME [1] = assay: Pre-emergence herbicidal action against STEME; type: in vivo, Stellaria media; conditions: application rate 80 g/ha
Excerpt: (§1) 1. Pre-emergence herbicidal action against harmful plants and crop plant compatibility Seeds of monocotyledonous and dicotyledonous weed plants and crop plants are placed in plastic or wood-fibre pots and covered with soil. The compounds of the invention, formulated in the form of wettable powders (WP) or as emulsion concentrates (EC), are then applied onto the surface of the covering soil as aqueous suspension or emulsion with addition of 0.5% additive at a water application rate of 600 l/ha (converted). After the treatment, the pots are placed in a greenhouse and kept under good growth conditions for the trial plants. After about 3 weeks, the effect of the preparations is scored visually in comparison with untreated controls as percentages. For example, 100% activity=the plants have died, 0% activity=like control plants. [table]

VERPE [2] = assay: Pre-emergence herbicidal action against VERPE; type: in vivo, Veronica persica; conditions: application rate 80 g/ha
Excerpt: as §1

AVEFA [3] = assay: Post-emergence herbicidal action against AVEFA; type: in vivo, Avena fatua; conditions: application rate 80 g/ha, rated visually after about 3 weeks
In short: (§2)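 Percent herbicidal activity was judged visually relative to untreated controls approximately 3 weeks after spraying. Treatment occurred at the one-leaf stage on greenhouse-grown plants in sandy loam.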

HORMU [4] = assay: Pre-emergence herbicidal action against HORMU; type: in vivo, Hordeum murinum; conditions: application rate 80 g/ha
Excerpt: as §1

LOLRI [5] = assay: Post-emergence herbicidal action against LOLRI; type: in vivo, Lolium rigidum; conditions: application rate 80 g/ha, rated visually after about 3 weeks
In short: as §2

HORMU [6] = assay: Post-emergence herbicidal action against HORMU; type: in vivo, Hordeum murinum; conditions: application rate 80 g/ha
In short: as §2

AMARE [7] = assay: Pre-emergence herbicidal action against AMARE; type: in vivo, Amaranthus retroflexus; conditions: application rate 80 g/ha
Excerpt: as §1

LOLRI [8] = assay: Pre-emergence herbicidal action against LOLRI; type: in vivo, Lolium rigidum; conditions: application rate 80 g/ha, scored visually after about 3 weeks vs untreated controls (100% = plants have died, 0% = like control plants)
Excerpt: as §1

SETVI [9] = assay: Pre-emergence herbicidal action against SETVI; type: in vivo, Setaria viridis; conditions: application rate 80 g/ha, scored visually after about 3 weeks vs untreated controls (100% = plants have died, 0% = like control plants)
Excerpt: as §1

POLCO [10] = assay: Pre-emergence herbicidal action against POLCO; type: in vivo, Polygonum convolvulus; conditions: application rate 80 g/ha
Excerpt: as §1

AVEFA [11] = assay: Pre-emergence herbicidal action against AVEFA; type: in vivo, Avena fatua; conditions: application rate 80 g/ha, scored visually after about 3 weeks vs untreated controls (100% = plants have died, 0% = like control plants)
Excerpt: as §1

ALOMY [12] = assay: Pre-emergence herbicidal action against ALOMY; type: in vivo, Alopecurus myosuroides; conditions: application rate 80 g/ha, scored visually after about 3 weeks vs untreated controls (100% = plants have died, 0% = like control plants)
Excerpt: as §1

SETVI [13] = assay: Post-emergence herbicidal action against SETVI; type: in vivo, Setaria viridis; conditions: application rate 80 g/ha, rated visually after about 3 weeks
In short: as §2

ECHCG [14] = assay: Post-emergence herbicidal action against ECHCG; type: in vivo, Echinochloa crus-galli; conditions: application rate 80 g/ha, rated visually after about 3 weeks
In short: as §2

AMARE [15] = assay: Post-emergence herbicidal action against AMARE; type: in vivo, Amaranthus retroflexus; conditions: application rate 80 g/ha, rated visually about 3 weeks after treatment
In short: as §2

ECHCG [16] = assay: Pre-emergence herbicidal action against ECHCG; type: in vivo, Echinochloa crus-galli; conditions: application rate 80 g/ha, scored visually after about 3 weeks vs untreated controls (100% = plants have died, 0% = like control plants)
Excerpt: as §1

VIOTR [17] = assay: Post-emergence herbicidal action against VIOTR; type: in vivo, Viola tricolor; conditions: application rate 80 g/ha, rated visually about 3 weeks after treatment
In short: as §2

STEME [18] = assay: Post-emergence herbicidal action against STEME; type: in vivo, Stellaria media; conditions: application rate 80 g/ha, rated visually about 3 weeks after treatment
In short: as §2

POLCO [19] = assay: Post-emergence herbicidal action against POLCO; type: in vivo, Polygonum convolvulus; conditions: application rate 80 g/ha, rated visually about 3 weeks after treatment
In short: as §2

ALOMY [20] = assay: Post-emergence herbicidal action against ALOMY; type: in vivo, Alopecurus myosuroides; conditions: application rate 80 g/ha, rated visually after about 3 weeks
In short: as §2

VIOTR [21] = assay: Pre-emergence herbicidal action against VIOTR; type: in vivo, Viola tricolor; conditions: application rate 80 g/ha
Excerpt: as §1

PHBPU [22] = assay: Pre-emergence herbicidal action against PHBPU; type: in vivo, Pharbitis purpurea; conditions: application rate 80 g/ha
Excerpt: as §1

PHBPU [23] = assay: Post-emergence herbicidal action against PHBPU; type: in vivo, Pharbitis purpurea; conditions: application rate 80 g/ha, rated visually about 3 weeks after treatment
In short: as §2

VERPE [24] = assay: Post-emergence herbicidal action against VERPE; type: in vivo, Veronica persica; conditions: application rate 80 g/ha
In short: as §2

MATIN = assay: Post-emergence herbicidal action against MATIN; type: in vivo, Matricaria inodora; conditions: application rate 80 g/ha, rated visually about 3 weeks after treatment
In short: as §2

ABUTH = assay: Post-emergence herbicidal action against ABUTH; type: in vivo, Abutilon theophrasti; conditions: application rate 80 g/ha, rated visually about 3 weeks after treatment
In short: as §2

Compound | Herbicidal action against [%] STEME (STEME [1]) | Herbicidal action against [%] AVEFA (AVEFA [3]) | Herbicidal action against [%] HORMU (HORMU [4]) | Herbicidal action against [%] LOLRI (LOLRI [5]) | Herbicidal action against [%] HORMU (HORMU [6]) | Herbicidal action against [%] AMARE (AMARE [7]) | Herbicidal action against [%] ALOMY (ALOMY [12]) | Herbicidal action against [%] SETVI (SETVI [13]) | Herbicidal action against [%] ECHCG (ECHCG [14]) | Herbicidal action against [%] AMARE (AMARE [15]) | Herbicidal action against [%] STEME (STEME [18]) | Herbicidal action against [%] POLCO (POLCO [19]) | Herbicidal action against [%] ALOMY (ALOMY [20]) | also measured
CC1(C(=O)NC2C=CC(C(=O)NS(C)(=O)=O)C2)CC(c2cccc(F)c2)=NO1 (mixture of isomers) [II-13] | 100% |  |  |  |  |  |  |  |  |  |  |  |  | 
CC1(C(=O)N[C@@H]2CC=C(C(=O)O)C2)CC(c2cccc(F)c2)=NO1 (mixture of isomers) [III-01, (4R)-4-[[[(5SR)-3-(3-fluorophenyl)-5-methyl-4H-1,2-oxazol-5-yl]carbonyl]amino]cyclopentene-1-carboxylic acid] |  | 80% | 80% |  |  |  |  |  |  |  |  |  |  | Herbicidal action against [%] VERPE (VERPE [2]): 90%
COC(=O)C1=CC[C@@H](NC(=O)C2(C)CC(c3cccc(F)c3)=NO2)C1 (mixture of isomers) [III-03, methyl (4R)-4-[[[(5SR)-3-(3-fluorophenyl)-5-methyl-4H-1,2-oxazol-5-yl]carbonyl]amino]cyclopentene-1-carboxylate] |  | 90% |  | 80% | 90% |  |  |  |  |  |  |  |  | Herbicidal action against [%] VERPE (VERPE [2]): 80%
CN(C)C(=O)C1=CCC(NC(=O)C2(C)CC(c3cccc(F)c3)=NO2)C1 (mixture of isomers) [IV-01] | 90% |  | 90% |  |  | 90% | 90% |  |  |  |  |  |  | Herbicidal action against [%] LOLRI (LOLRI [8]): 100%; Herbicidal action against [%] SETVI (SETVI [9]): 90%; Herbicidal action against [%] POLCO (POLCO [10]): 90%; Herbicidal action against [%] AVEFA (AVEFA [11]): 90%
CONC(=O)C1=CC[C@@H](NC(=O)C2(C)CC(c3cccc(F)c3)=NO2)C1 (mixture of isomers) [IV-03, (5SR)-3-(3-Fluorophenyl)-N-[(1R)-3-[(methoxyamino)carbonyl]cyclopent-3-en-1-yl]-5-methyl-4H-1,2-oxazole-5-carboxamide] |  |  |  | 90% |  |  | 90% |  |  |  |  |  |  | 
CONC(=O)C1=CCC(NC(=O)C2(C)CC(c3cccc(F)c3)=NO2)C1 (mixture of isomers) [IV-04] | 90% | 90% | 90% | 90% | 90% | 90% | 90% | 80% | 80% | 80% | 80% | 80% | 90% | Herbicidal action against [%] LOLRI (LOLRI [8]): 100%; Herbicidal action against [%] SETVI (SETVI [9]): 100%; Herbicidal action against [%] ECHCG (ECHCG [16]): 90%; Herbicidal action against [%] VIOTR (VIOTR [17]): 80%; Herbicidal action against [%] AVEFA (AVEFA [11]): 90%
CN(C)NC(=O)C1=CCC(NC(=O)C2(C)CC(c3cccc(F)c3)=NO2)C1 (mixture of isomers) [IV-05] | 90% |  |  |  |  |  | 80% |  |  |  |  |  |  | Herbicidal action against [%] VIOTR (VIOTR [21]): 100%; Herbicidal action against [%] AVEFA (AVEFA [11]): 80%
CN(C)NC(=O)C1=CCC(NC(=O)C2(C)CC(c3cccc(F)c3)=NO2)C1 (mixture of isomers) [IV-06] | 90% | 90% | 90% | 80% | 90% | 80% | 100% | 80% | 80% | 80% | 80% | 80% | 90% | Herbicidal action against [%] PHBPU (PHBPU [22]): 90%; Herbicidal action against [%] LOLRI (LOLRI [8]): 100%; Herbicidal action against [%] SETVI (SETVI [9]): 100%; Herbicidal action against [%] VIOTR (VIOTR [21]): 100%; Herbicidal action against [%] ECHCG (ECHCG [16]): 90%; Herbicidal action against [%] POLCO (POLCO [10]): 80%; Herbicidal action against [%] VIOTR (VIOTR [17]): 90%
CCOC(=O)[C@H]1C=C[C@@H](NC(=O)C2(C)CC(c3cccc(F)c3)=NO2)C1 (stereo partly drawn) [Example I-005] |  |  |  |  |  | 80% |  |  |  |  |  |  |  | 
CCOCCOC(=O)[C@@H]1C=C[C@H](NC(=O)[C@@]2(C)CC(c3cc(F)cc(F)c3)=NO2)C1 [Example I-093] |  | 100% |  | 100% | 100% |  |  | 80% | 100% | 80% | 80% | 90% | 100% | Herbicidal action against [%] PHBPU (PHBPU [23]): 80%; Herbicidal action against [%] VERPE (VERPE [24]): 80%; Herbicidal action against [%] VIOTR (VIOTR [17]): 80%; Herbicidal action against [%] MATIN (MATIN): 90%; Herbicidal action against [%] ABUTH (ABUTH): 80%
O=C(O)C1C=CC(NC(=O)C2(C3CC3)CC(c3cc(F)cc(F)c3)=NO2)C1 (stereo not drawn) [Example I-094] |  | 90% |  | 90% | 90% |  |  | 80% | 90% | 90% | 90% | 90% | 100% | Herbicidal action against [%] PHBPU (PHBPU [23]): 90%; Herbicidal action against [%] VERPE (VERPE [24]): 90%; Herbicidal action against [%] VIOTR (VIOTR [17]): 90%; Herbicidal action against [%] MATIN (MATIN): 80%; Herbicidal action against [%] ABUTH (ABUTH): 90%
CCONC(=O)[C@H]1C=C[C@@H](NC(=O)C2(C)CC(c3cccc(F)c3)=NO2)C1 (stereo partly drawn) [II-03] |  |  |  |  |  |  |  |  |  |  |  |  |  | Herbicidal action against [%] VIOTR (VIOTR [21]): 90%
CC(C)ONC(=O)[C@H]1C=C[C@@H](NC(=O)C2(C)CC(c3cccc(F)c3)=NO2)C1 (stereo partly drawn) [II-05] | 90% |  |  |  |  |  |  |  |  |  |  |  |  | 
CC1(C(=O)N[C@H]2C=C[C@@H](C(=O)N3CCCO3)C2)CC(c2cc(F)cc(F)c2)=NO1 (stereo partly drawn) [II-06] | 90% | 80% | 100% | 90% | 80% | 100% | 90% | 80% | 80% | 80% | 80% | 80% | 90% | Herbicidal action against [%] LOLRI (LOLRI [8]): 100%; Herbicidal action against [%] PHBPU (PHBPU [23]): 80%; Herbicidal action against [%] SETVI (SETVI [9]): 100%; Herbicidal action against [%] VERPE (VERPE [24]): 80%; Herbicidal action against [%] VIOTR (VIOTR [21]): 100%; Herbicidal action against [%] ECHCG (ECHCG [16]): 90%; Herbicidal action against [%] POLCO (POLCO [10]): 80%; Herbicidal action against [%] AVEFA (AVEFA [11]): 90%; Herbicidal action against [%] VERPE (VERPE [2]): 90%; Herbicidal action against [%] ABUTH (ABUTH): 80%
CCOC(=O)C1=CC[C@@H](NC(=O)C2(C)CC(c3cccc(F)c3)=NO2)C1 (stereo partly drawn) [III-05] |  |  | 80% | 80% | 90% |  |  |  |  |  |  |  |  | 
